Where two headings read alike, the source gives them in different places. Residues, ends and D or L forms follow the SMILES beside them. *: point of attachment. Cbz = O=C(OCc1ccccc1)*; OtBu = CC(C)(C)O* Where only a bound is given, the exact number is not on record here.

In one series the test system is I-κBα. As to the kind of experiment: Proteasome inhibitor treatment of SH-SY5Y/TG cells, Western blotting for I-κBα and ubiquitin. Particulars: SH-SY5Y/TG cells incubated for 6 hours with proteasome inhibitor; for increased ubiquitinated I-κBα: Western blotting; for level of I-κBα: cytosol. In general terms: Immunoblotting shows a protein as a band on a membrane.
Series [1] deals with SH-SY5Y/TG cells.
Series [2] concerns TGase 2. As to the kind of experiment: TGase activity assay in LPS-activated BV-2 microglia. Type of series: cell-based, murine. Particulars: BV-2 cells treated with LPS and NMMA (0, 50, 100 μM), 24 hours. As to the method: (§1) The BV-2 cells were grown and maintained in DMEM (Dulvecco's modified Eagle's medium) (Invitrogen) supplemented with 10% FCS (fetal calf serum) and penicillin/streptomycin at 37° C. in a humidified incubator under 5% CO2. To activate BV-2, the cells were treated with LPS (100 μg/ml; Sigma) for 24 hours. After LPS treatment for 24 hours with or without inducible nitric-oxide synthase(iNOS) inhibitor, 0, 50, and 100 μM N^G-monomethyl-L-arginine(L-NMMA) (Sigma), proteins were extracted with radioimmunoprecipitation assay buffer (1× phosphate-buffered saline (PBS), 1% Nonidet P-40, 0.5% sodium deoxycholate and 0.1% SDS) containing protease inhibitors from BV-2 harvest, followed by analysis for TGase 2 activity.
Enzymatic activity was determined using a modified TGase assay method for measuring the incorporation of [1,4-^14C] putrescine into succinylated casein.

The next series deals with BV-2 microglia. As to the kind of experiment: Nitric oxide measurement (Griess reaction) in LPS-activated BV-2 microglia. Type of series: cell-based, murine. Particulars: BV-2 cells treated with LPS and NMMA (0, 50, 100 μM), 24 hours. As for the experimental part: as §1
Accumulated nitric oxide was measured in the cell supernatant after LPS treatment for 24 hours by Griess reaction. A 200 μl aliquot of the cell supernatant in each well of a 96-well microtiter plate was mixed with 100 μl of the Griess reagent [1% sulfanilamide (Fluka), 0.1% naphthylethylenediamine dihydrochloride (Fluka), 2.5% H3PO4], and the absorbance was read at 540 nm using a plate reader.
In general terms: The Griess reaction detects nitrite, a stable product of nitric oxide.

The target in series [3] is T1, TGase 2 (Homo sapiens, UniProt P21980).
T1 construct: carry a pcDNA5/FRT vector containing a full-length human TGase 2 gene; expressed in transfected cells; host or cells: human neuroblastoma SH-SY5Y, Flp-In system, pcDNA5/FRT vector
T1 sequence (P21980 1-687): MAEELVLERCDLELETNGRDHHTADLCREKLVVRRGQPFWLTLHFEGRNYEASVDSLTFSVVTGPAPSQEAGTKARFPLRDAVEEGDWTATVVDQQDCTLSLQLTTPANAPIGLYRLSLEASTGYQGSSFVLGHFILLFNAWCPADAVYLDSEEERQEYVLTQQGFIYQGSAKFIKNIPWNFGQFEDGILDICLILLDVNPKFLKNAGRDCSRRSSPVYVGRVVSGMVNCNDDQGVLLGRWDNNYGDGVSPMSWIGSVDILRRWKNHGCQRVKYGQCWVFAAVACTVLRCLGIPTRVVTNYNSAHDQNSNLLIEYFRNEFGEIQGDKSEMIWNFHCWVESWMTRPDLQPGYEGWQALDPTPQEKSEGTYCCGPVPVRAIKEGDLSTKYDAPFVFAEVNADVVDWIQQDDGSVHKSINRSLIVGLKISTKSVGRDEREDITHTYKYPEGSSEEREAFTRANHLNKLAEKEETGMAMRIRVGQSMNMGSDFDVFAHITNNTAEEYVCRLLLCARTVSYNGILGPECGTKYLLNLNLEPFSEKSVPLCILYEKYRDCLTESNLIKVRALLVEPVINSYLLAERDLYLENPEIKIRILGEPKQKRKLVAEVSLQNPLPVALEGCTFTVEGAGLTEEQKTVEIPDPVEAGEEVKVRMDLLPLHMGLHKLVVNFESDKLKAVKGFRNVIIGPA
The experiment in a line: Effect of TGase inhibitors on reduced I-κBα in SH-SY5Y/TG cells. In kind it is cell-based. Particulars: SH-SY5Y/TG cells incubated for 30 min with TGase inhibitor, Western blotting. From the text: Cystamine is known to inhibit TGase activity by blocking the access of a glutamine residue in substrate proteins to the TGase active site. Iodoacetamide (Sigma) is also known to inhibit TGase activity as a strong competitive irreversible inhibitor. […] E2 (DPVKG: SEQ. ID. NO. 6) and R2 (KVLDGQDP: SEQ. ID. NO. 7) were designed to contain a pro-elafin sequence and a pro-elafin/antiflamnin sequence, respectively, therein. […] In order to examine the effect of TGase inhibitors on the decrease in I-κBα level, the SH-SY5Y/TG culture was treated with different inhibitors for 30 min, followed by the separation of the cytosolic fraction using a nuclear extract kit (Sigma).
The effect of TGase 2 expression on the level of I-κBα was examined in EcR 293 and SH-SY5Y cells. To control TGase 2 expression, a tetracycline-induced expression system was applied to EcR 293 cell line (FIG. 6A). In FIG. 6A, EcR 293 cells were collected before incubation (left), after incubation in a medium containing 1 μg/ml of tetracycline for 24 hours (center), and after incubation in a medium containing 1 μg/ml of tetracycline for 24 hours and then in a fresh medium containing no tetracycline for an additional 24 hours (right). […] To examine whether TGase 2 inhibitors can result in the same effect, SH-SY5Y/TG cells were incubated for 30 min with a TGase inhibitor, such as cystamine, idoacetamide, E2 peptide, or R2 peptide.

In series [4] the test system is SH-SY5Y/TG cells. As to the kind of experiment: LDH activity in medium and caspase-9 expression in proteasome inhibitor-treated SH-SY5Y/TG cells. Particulars: SH-SY5Y/TG cells incubated for 6 hours with proteasome inhibitor.
Series [5] deals with full-length human NF-κB (p65) (human) (UniProt Q04206). As to the kind of experiment: densitometry of co-immunoprecipitation / Western blot.
Series [6] addresses T2, full-length human I-κBα (free form), P25963.
T2 chain: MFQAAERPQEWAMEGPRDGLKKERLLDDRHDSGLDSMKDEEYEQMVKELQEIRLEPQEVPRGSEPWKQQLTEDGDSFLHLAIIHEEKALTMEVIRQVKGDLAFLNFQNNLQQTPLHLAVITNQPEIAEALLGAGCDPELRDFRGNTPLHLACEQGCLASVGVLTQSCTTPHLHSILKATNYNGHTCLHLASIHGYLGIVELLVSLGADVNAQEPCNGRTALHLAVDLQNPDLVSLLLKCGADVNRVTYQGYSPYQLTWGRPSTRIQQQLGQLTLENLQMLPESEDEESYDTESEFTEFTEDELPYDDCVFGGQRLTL

For series [7], the target named is T3, human recombinant NF-κB(p52) protein, Q00653.
T3 chain: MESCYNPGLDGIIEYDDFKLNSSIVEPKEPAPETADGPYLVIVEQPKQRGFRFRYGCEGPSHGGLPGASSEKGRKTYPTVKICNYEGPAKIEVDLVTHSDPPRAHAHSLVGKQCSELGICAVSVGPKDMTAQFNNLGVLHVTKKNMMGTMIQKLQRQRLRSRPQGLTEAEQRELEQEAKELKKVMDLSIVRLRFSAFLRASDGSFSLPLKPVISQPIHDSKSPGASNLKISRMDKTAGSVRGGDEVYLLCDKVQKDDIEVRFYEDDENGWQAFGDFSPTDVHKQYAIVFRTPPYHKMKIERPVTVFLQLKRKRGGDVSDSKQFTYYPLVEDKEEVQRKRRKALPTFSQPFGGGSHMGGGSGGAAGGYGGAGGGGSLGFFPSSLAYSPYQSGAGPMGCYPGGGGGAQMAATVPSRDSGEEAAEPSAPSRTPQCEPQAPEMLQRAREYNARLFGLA

Chain of full-length human NF-κB (p65) (human) (Q04206 whole entry): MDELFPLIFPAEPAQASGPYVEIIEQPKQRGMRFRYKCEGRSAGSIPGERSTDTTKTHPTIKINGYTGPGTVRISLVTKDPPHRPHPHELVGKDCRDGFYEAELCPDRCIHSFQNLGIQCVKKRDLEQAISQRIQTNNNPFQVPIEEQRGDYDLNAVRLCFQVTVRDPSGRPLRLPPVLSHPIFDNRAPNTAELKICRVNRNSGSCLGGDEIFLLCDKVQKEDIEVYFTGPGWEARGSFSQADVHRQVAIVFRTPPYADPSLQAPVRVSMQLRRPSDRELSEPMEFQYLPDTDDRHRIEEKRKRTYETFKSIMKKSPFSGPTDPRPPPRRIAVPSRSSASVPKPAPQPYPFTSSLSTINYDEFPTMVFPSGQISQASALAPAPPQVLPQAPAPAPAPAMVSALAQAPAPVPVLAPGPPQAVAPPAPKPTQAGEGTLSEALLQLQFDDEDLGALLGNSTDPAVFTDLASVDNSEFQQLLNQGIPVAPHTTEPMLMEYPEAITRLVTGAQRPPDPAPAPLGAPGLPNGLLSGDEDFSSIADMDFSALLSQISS

For the molecule `CC(C)C[C@@H](C=O)NC(=O)[C@H](CC(C)C)NC(=O)[C@H](CC(C)C)NC(=O)OCc1ccccc1` [MG132] (Cbz-Leu-Leu-Leu-aldehyde), in the series with I-κBα, the “increased ubiquitinated I-κBα” value was “not detected” and the “level of I-κBα” value is listed as “increased”. In the series on SH-SY5Y/TG cells [1], the “LDH activity in the medium” value is reported as “not detected” and the “caspase-9 expression by Western blotting” value was “not detected”.
As for `CNC(=N)NCCC[C@H](N)C(=O)O` [NMMA, N^G-monomethyl-L-arginine], the TGase activity entry with TGase 2 [2] is reported as “did not affect”. For the same molecule, in the series with BV-2 microglia, the NO secretion entry is “reduced NO secretion in a dose-dependent manner”.
`CC[C@H](C)[C@H](NC(=O)OCc1ccccc1)C(=O)N[C@@H](CCC(=O)OC(C)(C)C)C(=O)N[C@@H](C)C(=O)N[C@H](C=O)CC(C)C` [carbobenzoxy-L-isoleucyl-gamma-t-butyl-L-alanyl-L-leucinal] (Cbz-IE(OtBu)AL-aldehyde): in the series on I-κBα, the “increased ubiquitinated I-κBα” value is recorded as “not detected” and the “level of I-κBα” value is recorded as “increased”. Besides, in the series with SH-SY5Y/TG cells [1], the “LDH activity in the medium” value is reported as “not detected” and the “caspase-9 expression by Western blotting” value is listed as “not detected”.
For the molecule `NCCSSCCN` [cystamine, Cystamine], at TGase 2 [3], the “cytosolic I-κBα level” value is “reduce the cytosolic I-κBα level almost to the control level”.
Regarding `NC(=O)CI` [idoacetamide, Iodoacetamide], the “cytosolic I-κBα level” value at TGase 2 [3] is reported as “reduce the cytosolic I-κBα level almost to the control level”.
`CC(=O)N[C@@H](CSC(=O)[C@]1([C@@H](O)C(C)C)NC(=O)[C@H](C)[C@@H]1O)C(=O)O` [lactacystin]: in the series with I-κBα, the “increased ubiquitinated I-κBα” value was “not detected” and the “level of I-κBα” value is on record as “increased”. Further, in the series on SH-SY5Y/TG cells [4], the “LDH activity in the medium” value was “not detected” and the “caspase-9 expression by Western blotting” value is “not detected”.
On to “DPVKG (pro-elafin sequence) [E2 peptide]”, for which the “cytosolic I-κBα level” value with TGase 2 [3] is reported as “reduce the cytosolic I-κBα level almost to the control level”.
With “KVLDGQDP (pro-elafin/antiflammin sequence) [R2 peptide]”, in the series with TGase 2 [3], the “cytosolic I-κBα level” value is “reduce the cytosolic I-κBα level almost to the control level”.
In [5], “polymerized I-κBα (full-length human I-κBα cross-linked by TGase 2) (from UniProt P25963 1-317)” gave a loss of binding efficiency relative to free I-κBα greater than 90%.

B1: guinea pig liver TGase 2 (protein)
chain: AEDLILERCDLQLEVNGRDHRTADLCRERLVLRRGQPFWLTLHFEGRGYEAGVDTLTFNAVTGPDPSEEAGTMARFSLSSAVEGGTWSASAVDQQDSTVSLLLSTPADAPIGLYRLSLEASTGYQGSSFVLGHFILLYNPRCPADAVYMDSDQERQEYVLTQQGFIYQGSAKFINGIPWNFGQFEDGILDICLMLLDTNPKFLKNAGQDCSRRSRPVYVGRVVSAMVNCNDDQGVLQGRWDNNYSDGVSPMSWIGSVDILRRWKDYGCQRVKYGQCWVFAAVACTVLRCLGIPTRVVTNFNSAHDQNSNLLIEYFRNESGEIEGNKSEMIWNFHCWVESWMTRPDLEPGYEGWQALDPTPQEKSEGTYCCGPVPVRAIKEGHLNVKYDAPFVFAEVNADVVNWIRQKDGSLRKSINHLVVGLKISTKSVGRDEREDITHTYKYPEGSEEEREAFVRANHLNKLATKEEAQEETGVAMRIRVGQNMTMGSDFDIFAYITNGTAESHECQLLLCARIVSYNGVLGPVCSTNDLLNLTLDPFSENSIPLHILYEKYGDYLTESNLIKVRGLLIEPAANSYVLAERDIYLENPEIKIRVLGEPKQNRKLIAEVSLKNPLPVPLLGCIFTVEGAGLTKDQKSVEVPDPVEAGEQAKVRVDLLPTEVGLHKLVVNFECDKLKAVKGYRNVIIGPA
With B1, the “polymerization of I-κBα (in vitro cross-linking, Western blotting)” value in series [6] is “resulted in completely polymerized I-κBα”. Moreover, the “polymerization of NF-κB(p52) (in vitro cross-linking, Coomassie staining)” value in series [7] is listed as “The same polymerization was not observed”.

The record behind these values is patent publication US20060286608A1, “Method for screening transglutaminase 2 inhibitor or activator” (priority 2005, published 2006).
